Assay results taken from US10160764B2 (priority 2016, dated 2018).

Target: influenza virus minigenome (PB2, PB1, PA, NP, Luciferase reporter), Hubei (Influenza A virus, UniProt A0A1L2FNK2)
Format: cell-based
Details: read-out: RNP_Hubei EC50

## O=C1c2c(O)c(=O)cnn2[C@@H]([C@@H](c2cccc(F)c2)c2ccc(F)c(F)c2)[C@H]2CCCN12 [Example 34, (9aR,10S)-10-((S)-(3,4-difluorophenyl)(3-fluorophenyl)methyl)-4-hydroxy-8,9,9a,10-tetrahydro-7H-pyrrolo[1′,2′:4,5]pyrazino[1,2-b]pyridazine-3,5-dione]
  EC50: 43 nM
